Holding throughout (assay type): cell-based
Experiment [1] has as its system Wnt activity (Sp5-Luc reporter, human Sp5 promoter with eight TCF/LEF binding sites) in SW480 colon carcinoma cells. Description: Screening assay for Wnt activity: Sp5-Luc reporter gene assay in SW480 cells. The conditions noted are these: for inhibition at 10 µM: read-out: percent inhibition at 10 μM (given for EC50 of >10 μM); for EC50: 10-point dose-response starting from 10 μM, overnight incubation. The method in brief: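 Luminescence (BrightGlo) read after overnight 37 °C exposure of Sp5-Luc SW480 reporter cells, 4,000/well in 1% FBS, to compound dosed 1:3 over 10 points from 10 μM with 0.1% DMSO. Values normalized to DMSO-only cells, fitted with variable-slope four-parameter model; where EC50 exceeds 10 μM, % inhibition at 10 μM reported.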
Background: Reporter assays use an easily measured gene product as a stand-in for the process of interest.

Experiment [2] concerns SW480 colon cancer cells. Description: Cell viability assay (CellTiter-Blue) in SW480 colon cancer cells. The conditions noted are these: Homo sapiens, 96 h; for inhibition at 10 µM: four days, CellTiter-Blue, read-out: percent inhibition at 10 μM (given for EC50 of >10 μM); for EC50: four days incubation, CellTiter-Blue cell viability. The gist of the method: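 Four-day exposure of SW480 cells (~2×10^3/well) to compound from 10 μM down to 0.004 μM in 1:3 steps, in duplicate. Resorufin fluorescence from CellTiter-Blue after ~3 h served as the viability read-out. EC50 values came from nonlinear curve fits, with % inhibition at 10 μM given where EC50 >10 μM.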

Experiment [3] has as its system IL-6 in THP-1 cells. Description: Inhibition of IL-6 in LPS-stimulated THP-1 human monocyte cells (HTRF). The settings on record: IL-6 HTRF; for EC50: 500 ng/mL LPS, 22 hours; for inhibition at 10 µM: LPS, read-out: percent inhibition in brackets (given for EC50 >10 μM). The gist of the method:
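IL-6 was quantified by HTRF ratio after LPS (500 ng/mL, 22 h) stimulation of THP-1 monocytes pretreated 2 h with compound, 10-point 1:3 dilutions from 10 μM, 0.1% DMSO. Cells were held in 1% FBS for 24 h beforehand. Values normalised to DMSO; four-parameter EC50, or % inhibition at 10 μM above that.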

Turning to `Fc1cccc(-c2cncc3[nH]c(-c4n[nH]c5ccc(-c6cncc(OC7CCNCC7)c6)nc45)nc23)c1` [Compound 484, 3-(7-(3-Fluorophenyl)-3H-imidazo[4,5-c]pyridin-2-yl)-5-(5-(piperidin-4-yloxy)pyridin-3-yl)-1H-pyrazolo[4,3-b]pyridine], the values for the inhibition at 10 µM in experiment [1], in experiment [2] and in experiment [3] were 24%, 11.7% and 11.3%, respectively. For the same compound, the EC50 in experiment [1], in experiment [2] and in experiment [3] was greater than 10 µM in each case.
As for `Cn1cc(-c2ccc3[nH]nc(-c4nc5c(-c6ccc7c(c6)OCO7)cncc5[nH]4)c3n2)c(CO)n1` [Compound 1106, (4-(3-(7-(Benzo[d][1,3]dioxol-5-yl)-3H-imidazo[4,5-c]pyridin-2-yl)-1H-pyrazolo[4,3-b]pyridin-5-yl)-1-methyl-1H-pyrazol-3-yl)methanol], the inhibition at 10 µM stood at 24.7% in experiment [1], 3.1% in experiment [2] and 0% in experiment [3]. For the same compound, the EC50 in experiment [1], in experiment [2] and in experiment [3] was greater than 10 µM throughout.
As for `CS(=O)(=O)NCc1cc(F)cc(-c2cncc3[nH]c(-c4n[nH]c5ccc(-c6cncc(NC(=O)c7ccccc7)c6)nc45)nc23)c1` [Compound 459, N-(5-(3-(7-(3-Fluoro-5-(methylsulfonamidomethyl)phenyl)-3H-imidazo[4,5-c]pyridin-2-yl)-1H-pyrazolo[4,3-b]pyridin-5-yl)pyridin-3-yl)benzamide], the inhibition at 10 µM in experiment [1] turned out to be 9.6%; in experiment [2] it was 1.8%; in experiment [3], 0%. Moreover, the EC50 in experiment [1], in experiment [2] and in experiment [3] was greater than 10 µM each time.
For `c1cc(-c2cncc3[nH]c(-c4n[nH]c5ccc(-c6cnccn6)nc45)nc23)ccn1` [Compound 556, 5-(Pyrazin-2-yl)-3-(7-(pyridin-4-yl)-3H-imidazo[4,5-c]pyridin-2-yl)-1H-pyrazolo[4,3-b]pyridine], the inhibition at 10 µM in experiment [1] was 9.5%; in experiment [2] it was 13.7%; in experiment [3], 0%. In addition, the 50% effective concentration (EC50) in experiment [1], in experiment [2] and in experiment [3] was greater than 10 µM in each case.
With `CN(C)Cc1cncc(-c2ccc3[nH]nc(-c4nc5c(-c6cccs6)cncc5[nH]4)c3n2)c1` [Compound 321, N,N-dimethyl-1-(5-(3-(7-(thiophen-2-yl)-3H-imidazo[4,5-c]pyridin-2-yl)-1H-pyrazolo[4,3-b]pyridin-5-yl)pyridin-3-yl)methanamine], the inhibition at 10 µM in experiment [1] was 19.2%; in experiment [3], 22.2%. Besides, the EC50 was greater than 10 µM in experiment [1], 4.74 µM in experiment [2] and greater than 10 µM in experiment [3].
With `CCNCc1cncc(-c2ccc3[nH]nc(-c4nc5c(-c6cc(F)cc(NCCN(C)C)c6)cncc5[nH]4)c3n2)c1` [Compound 426, N^1-(3-(2-(5-(5-((Ethylamino)methyl)pyridin-3-yl)-1H-pyrazolo[4,3-b]pyridin-3-yl)-3H-imidazo[4,5-c]pyridin-7-yl)-5-fluorophenyl)-N^2,N^2-dimethylethane-1,2-diamine], the inhibition at 10 µM in experiment [1] was determined as 8.8%; in experiment [2], 4.4%. Besides, the concentration for a half-maximal effect (EC50) is greater than 10 µM in experiment [1], greater than 10 µM in experiment [2] and 8.05 µM in experiment [3].
With `Cc1cnc(-c2ccc3[nH]nc(-c4nc5c(-c6cccc(F)c6)cncc5[nH]4)c3n2)s1` [Compound 1082, 2-(3-(7-(3-Fluorophenyl)-3H-imidazo[4,5-c]pyridin-2-yl)-1H-pyrazolo[4,3-b]pyridin-5-yl)-5-methylthiazole], the inhibition at 10 µM in experiment [1] was 27%; in experiment [2], 11.5%; in experiment [3], 14.3%. Moreover, the EC50 in experiment [1], in experiment [2] and in experiment [3] was greater than 10 µM in each case.
Regarding `CCNCc1cncc(-c2ccc3[nH]nc(-c4nc5c(-c6ccccn6)cncc5[nH]4)c3n2)c1` [Compound 146, N-((5-(3-(7-(Pyridin-2-yl)-3H-imidazo[4,5-c]pyridin-2-yl)-1H-pyrazolo[4,3-b]pyridin-5-yl)pyridin-3-yl)methyl)ethanamine], the inhibition at 10 µM is 14.2% in experiment [1], 26.9% in experiment [2] and 20.1% in experiment [3]. In addition, the concentration for a half-maximal effect (EC50) in experiment [1], in experiment [2] and in experiment [3] was greater than 10 µM throughout.
For `CN1CCN(c2cncc3[nH]c(-c4n[nH]c5ccc(-c6cncnc6)nc45)nc23)CC1` [Compound 251, 3-(7-(4-Methylpiperazin-1-yl)-3H-imidazo[4,5-c]pyridin-2-yl)-5-(pyrimidin-5-yl)-1H-pyrazolo[4,3-b]pyridine], the inhibition at 10 µM amounted to 14.4% in experiment [1], 0% in experiment [2] and 31.8% in experiment [3]. Besides, the half-maximal effective concentration (EC50) in experiment [1], in experiment [2] and in experiment [3] was greater than 10 µM throughout.
As to `Cc1ccc(-c2cncc3[nH]c(-c4n[nH]c5ccc(-c6cncc(NC(=O)C7CCCC7)c6)nc45)nc23)s1` [Compound 386, N-(5-(3-(7-(5-Methylthiophen-2-yl)-3H-imidazo[4,5-c]pyridin-2-yl)-1H-pyrazolo[4,3-b]pyridin-5-yl)pyridin-3-yl)cyclopentanecarboxamide], the inhibition at 10 µM is 8.7% in experiment [1] and 0.9% in experiment [2]. The results for the concentration for a half-maximal effect (EC50) in experiment [1], in experiment [2] and in experiment [3] were greater than 10 µM, greater than 10 µM and 0.351 µM, respectively.
Consider `CCC(=O)Nc1cncc(-c2ccc3[nH]nc(-c4nc5c(N6CCCCC6)cncc5[nH]4)c3n2)c1` [Compound 169, N-(5-(3-(7-(Piperidin-1-yl)-3H-imidazo[4,5-c]pyridin-2-yl)-1H-pyrazolo[4,3-b]pyridin-5-yl)pyridin-3-yl)propionamide], for which the inhibition at 10 µM in experiment [1] stood at 2.3%; in experiment [2], 2.2%; in experiment [3] it was 25.6%. Moreover, the EC50 in experiment [1], in experiment [2] and in experiment [3] was greater than 10 µM in each case.
Turning to `c1ccc(CNCc2cncc(-c3ccc4[nH]nc(-c5nc6c(-c7cccnc7)cncc6[nH]5)c4n3)c2)cc1` [Compound 108, N-Benzyl-1-(5-(3-(7-(pyridin-3-yl)-3H-imidazo[4,5-c]pyridin-2-yl)-1H-pyrazolo[4,3-b]pyridin-5-yl)pyridin-3-yl)methanamine], the inhibition at 10 µM in experiment [1] amounted to 5.3%; in experiment [2], 0%. Moreover, the EC50 in experiment [1] was greater than 10 µM; in experiment [2], greater than 10 µM; in experiment [3] it was 0.03 µM.
Consider `CC(C)C(=O)Nc1cncc(-c2ccc3[nH]nc(-c4nc5c(-c6cccnc6)cncc5[nH]4)c3n2)c1` [Compound 93, N-(5-(3-(7-(Pyridin-3-yl)-3H-imidazo[4,5-c]pyridin-2-yl)-1H-pyrazolo[4,3-b]pyridin-5-yl)pyridin-3-yl)isobutyramide], for which the inhibition at 10 µM in experiment [1] was 18.3%; in experiment [2] it was 6.3%; in experiment [3], 18%. The EC50 in experiment [1], in experiment [2] and in experiment [3] was greater than 10 µM in each case.
`Cc1ccc(-c2cncc3[nH]c(-c4n[nH]c5ccc(C6=CCNCC6)nc45)nc23)s1` [Compound 686, 3-(7-(5-Methylthiophen-2-yl)-3H-imidazo[4,5-c]pyridin-2-yl)-5-(1,2,3,6-tetrahydropyridin-4-yl)-1H-pyrazolo[4,3-b]pyridine]: the inhibition at 10 µM is 52.6% in experiment [1] and 23.8% in experiment [3]. Also, the EC50 is greater than 10 µM in experiment [1], 6.11 µM in experiment [2] and greater than 10 µM in experiment [3].
For the compound `c1cncc(-c2ccc3[nH]nc(-c4nc5c(-c6cccnc6)cncc5[nH]4)c3n2)c1` [Compound 88, 5-(Pyridin-3-yl)-3-(7-(pyridin-3-yl)-3H-imidazo[4,5-c]pyridin-2-yl)-1H-pyrazolo[4,3-b]pyridine], the inhibition at 10 µM in experiment [1] was found to be 28%; in experiment [2], 7.1%; in experiment [3], 13.9%. The EC50 in experiment [1], in experiment [2] and in experiment [3] was greater than 10 µM in each case.
In the case of `Fc1cccc(-c2cncc3[nH]c(-c4n[nH]c5ccc(-c6cn[nH]c6)nc45)nc23)c1` [Compound 479, 3-(7-(3-Fluorophenyl)-3H-imidazo[4,5-c]pyridin-2-yl)-5-(1H-pyrazol-4-yl)-1H-pyrazolo[4,3-b]pyridine], the inhibition at 10 µM in experiment [1] worked out at 9%; in experiment [2] it was 5.5%; in experiment [3], 15.7%. The concentration giving a half-maximal response (EC50) in experiment [1], in experiment [2] and in experiment [3] was greater than 10 µM throughout.

By inhibition is commonly meant the change of the read-out against control, counted positive when it falls. By EC50 is commonly meant the concentration needed to bring the measured effect to its halfway point. A high value points to lower potency in that assay.

For the origin of these results see patent US10188634B2, “3-(3H-imidazo[4,5-C]pyridin-2-yl)-1 H-pyrazolo[4,3-B]pyridines and therapeutic uses thereof” (Samumed, LLC, priority 2015, dated 2019).
